# Literature values, collected in patent US20240315301A1, “Composition for Improving Vision” (ALGAE HEALTH SCIENCES CO., LTD., priority 2021, published 2024).
# Conditions: fold more than vitamin E
structure (smiles),measurement,value
"CC1=C(/C=C/C(C)=C/C=C/C(C)=C/C=C/C=C(C)/C=C/C=C(C)/C=C/C2=C(C)C(=O)C(O)CC2(C)C)C(C)(C)CC(O)C1=O (stereo not drawn) [Astaxanthin, 3, 3′-dihydroxy-β, β-carotene-4, 4′-dione]",antioxidant activity relative to vitamin E (VE),1000 times
